The structures appear in SMILES notation.

The results in this text go back to patent publication US8445539B2, “Alpha-aminoamide derivatives useful in the treatment of psychiatric disorders” (priority 2007, dated 2013).

Test [1] relates to d-amphetamine-induced PPI impairment. Nature of the test: Amphetamine-induced PPI deficit (ralfinamide and haloperidol association). Type of test: in vivo. Particulars: ralfinamide methanesulfonate per se 60 mg/kg p.o.; d-amphetamine 2.5 mg/kg s.c.; rats. How it is done:
A PPI test, carried out according to the method described in Example 4, was performed in rats.

A further test has as its system NMDA receptor complex. Nature of the test: Inhibition of NMDA receptor complex, whole cell patch clamp in cortical neurons. Type of test: cell-based. To be noted: primary rat cortical neurons; holding -70 mV; NMDA 100 μM + glycine 10 μM; read-out: IC50 of NMDA-induced currents. Here is the method:
Cortical neurons were prepared from embryonic Wistar rats (E17-E19). A female rat at date 17-19 of pregnancy was anesthetized and sacrificed. The foetuses (n=4-5) were dissected and placed in ice-cold Hank's solution (Hank's solution (Life tech. 14170-088)+glucose 30%+Pen-Strep 100× (Life Tech. 15140-122) 100 U-100 μg/mL and Hepes-NaOH 5 mM).
The brain of the foetuses was cut in two halves, and each cortex was cut in smaller parts with a scissors, the pieces were transferred to a 15 mL centrifuge tube using a 5 mL pipette and washed twice with Hank's solution. […]
Cells were counted and diluted in Neurobasal medium to a concentration of 400000 cells per poly-D-lysine 5 μg/mL treated Petri dish. […]
Experiments on cortical neurons were carried out using standard whole cell patch clamp methods (Hamill et al., 1981. Pflügers Archly: European Journal of Physiology 391(2):85-100). Membrane currents were recorded and filtered at 5 kHz with an Axon Axopatch 200B amplifier and data digitized with an Axon Digidata 1322A (Axon Instruments, CA, USA). […]
Data were analyzed using Clampfit 9 (Axon Instruments, CA) and Origin 7.5 (Microcal Inc., Northampton, Mass., USA) software. Data points and results were expressed as arithmetic mean±S.E. […]
(The patch-clamp technique gives a direct electrical read-out from membranes.)

In test [2] the test system is MK-801-induced PPI disruption. Nature of the test: Prepulse inhibition of startle with disruption by MK-801. Type of test: in vivo, Wistar rats. To be noted: for Percentage of inhibition: % PPI; for Percentage of inhibition / Acoustic tone alone / Startle amplitude on prepulse + pulse trials: pretreatment ralfinamide methanesulfonate 90 mg/kg oral, mean ± SEM; for Acoustic tone alone / Startle amplitude on prepulse + pulse trials: startle amplitude. From the text: Prepulse inhibition (PPI) is a cross-species phenomenon (i.e., it is present in mammals ranging from mice to humans), yet it is relatively impaired among schizophrenic patients. The PPI procedure is used to assess the subject's ability to “gate” or filter environmental information. In the acoustic (startle model) of sensorimotor gating a weak acoustic stimulus (prepulse) decrease the reflexive flinching response (startle) produced by a second, more intense, stimulus (the pulse). Drugs like dizocilpine (MK-801) or amphetamine disrupt PPI and represent an animal model of schizophrenia; antipsychotic drugs are able to prevent PPI deficit. The test is quite useful to screen potential antipsychotic drugs.
Methods: Male Wistar rats, weighing 200-300 g were used. Apparatus: All startle and PPI testing has been performed in four startle chambers. Each ventilated illuminated and sound proof chamber contained a clear non-restrictive Plexiglas cylinder resting on a platform. A high-frequency loudspeaker inside the chamber produced both a continuous background noise of 70 dB and the various acoustic stimuli. Vibrations of the Plexiglas cylinder caused by the whole-body startle response of the animal were transduced into analogue signals by a piezoelectric unit attached to the platform. These signals were then digitized and stored by a computer. Sixty-five readings were taken at 1-ms intervals starting at stimulus onset, and the average amplitude was used to determine the acoustic startle response. Sound levels is given in dB.
Prepulse inhibition session: After 5 min of habituation (background white noise, 70 dB), two types of acoustic stimuli were used: acoustic stimulus alone (120 dB, 40 ms) or the stimulus proceeded by a prepulse (76, 79, 82 dB, 40 ms) applied 100 ms before the stimulus. During each experimental session 20 trials of each type were presented with interstimulus interval of 20 s. The amplitudes were averaged for each individual animal, separately for both types of trials (stimulus alone or stimulus preceded by the prepulse). The degree of prepulse inhibition was shown as a percentage score (% PPI) calculated as […] a difference between the amplitude of the pulse-alone (P) and the amplitude of the prepulse+pulse trials (PP+P), divided by the amplitude of the pulse-alone trials and multiplied by 100. […] Substances and treatments: MK-801 0.2 mg/kg was dissolved in saline and was given i.p. In each experiment, […] were assigned to receive either compounds of the disclosure or vehicle and were tested in the PPI session using a between-subjects design. The order of drug treatment for the first experiment was test-compound, followed by MK-801; for the second experiment rats received test-compound and then amphetamine. Statistical Analysis: Multiple ANOVA was conducted followed by Dunnett's post hoc test.

Setting [3] is: treatment MK-801 0.2 mg/kg i.p.

Usually IC50 stands for the concentration needed to halve the response being measured. Regarding `C[C@H](NCc1ccc(OCc2ccccc2F)cc1)C(N)=O` [Ralfinamide methanesulfonate, (S)-(+)-2-[4-(2-fluorobenzyloxy)benzylamino]propanamide], the “Reversal of PPI impairment induced by d-amphetamine” value in test [1] is “did not reverse”. Besides, the 50% inhibitory concentration (IC50) with NMDA receptor complex is 7.3 µM. In test [2] (setting [3]), the Percentage of inhibition stood at 21.92 ± 0.40 %, the Acoustic tone alone came to 38.50 ± 1.36 and the “Startle amplitude on prepulse + pulse trials” value came out at 30.00 ± 0.90. Further, in test [2] (treatment vehicle), the Percentage of inhibition was 44.16 ± 3.54%, the Acoustic tone alone is 35.50 ± 0.45 and the “Startle amplitude on prepulse + pulse trials” value is 20.00 ± 1.51. Moreover, the “Reversing the disruptive effect of MK-801 on PPI” value in test [2] (orally, 90 mg/kg) is “active”.
